In publication PMC3940079 (International Journal for Parasitology: Drugs and Drug …, 2013):

Tests used:
[1] = target: T1, P2 aminopurine transporter (TbAT1) (Trypanosoma brucei, UniProt Q9Y0I0); experiment: inhibition of […] [3H]-adenosine uptake; format: cell-based
T1 sequence (Q9Y0I0 1-463): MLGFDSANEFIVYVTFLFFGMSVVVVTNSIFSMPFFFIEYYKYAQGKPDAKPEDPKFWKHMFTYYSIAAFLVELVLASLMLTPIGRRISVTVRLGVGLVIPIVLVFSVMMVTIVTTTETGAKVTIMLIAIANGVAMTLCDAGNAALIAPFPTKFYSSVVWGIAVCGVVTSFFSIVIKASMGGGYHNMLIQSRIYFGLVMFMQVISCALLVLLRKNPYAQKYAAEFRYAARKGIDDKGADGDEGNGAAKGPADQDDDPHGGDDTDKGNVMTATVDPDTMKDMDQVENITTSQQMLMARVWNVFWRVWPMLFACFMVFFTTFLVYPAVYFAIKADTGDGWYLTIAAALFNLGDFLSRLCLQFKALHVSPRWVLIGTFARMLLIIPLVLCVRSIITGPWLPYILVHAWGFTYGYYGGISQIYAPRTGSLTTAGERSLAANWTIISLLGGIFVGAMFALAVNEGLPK

[2] = target: H2 nucleobase transporter; experiment: inhibition of […] [3H]-hypoxanthine uptake in bloodstream-form trypanosomes; format: cell-based, Trypanosoma brucei brucei
[3] = target: H3 nucleobase transporter; experiment: as above; format: cell-based, Trypanosoma brucei brucei

Nc1ncnc2n[nH]cc12 [aminopurinol]
Ki [1]: 75.3 ± 5.7 µM | Ki [2]: 230 ± 35 µM | Ki [3]: 105 ± 24 µM
